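96-well plates; 48 h exposure; 5 concentrations. Endpoints by linear interpolation between flanking doses. Not reached: highest tested concentration assigned. Here, GI50 denotes the concentration required for 50% inhibition of growth. TGI marks complete inhibition of growth.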
Legend:
Assay in all cases: NCI tumour cell line growth inhibition, 48 h
SR leukemia = system: SR leukemia
U251 CNS = system: U251 CNS
MDA-MB-231 breast = system: MDA-MB-231 breast
OVCAR-3 ovarian = system: OVCAR-3 ovarian
SK-MEL-5 melanoma = system: SK-MEL-5 melanoma
HT29 colon = system: HT29 colon
786-0 renal = system: 786-0 renal
UACC-257 melanoma = system: UACC-257 melanoma
A498 renal = system: A498 renal
MALME-3M melanoma = system: MALME-3M melanoma
SNB-75 CNS = system: SNB-75 CNS
LOX IMVI melanoma = system: LOX IMVI melanoma
NCI-H522 lung = system: NCI-H522 lung
HL-60(TB) leukemia = system: HL-60(TB) leukemia
RXF 393 renal = system: RXF 393 renal
UACC-62 melanoma = system: UACC-62 melanoma
SF-539 CNS = system: SF-539 CNS
SF-268 CNS = system: SF-268 CNS
SK-MEL-28 melanoma = system: SK-MEL-28 melanoma
RPMI-8226 leukemia = system: RPMI-8226 leukemia
SK-OV-3 ovarian = system: SK-OV-3 ovarian
HOP-62 NSCLC = system: HOP-62 NSCLC
TK-10 renal = system: TK-10 renal
NCI-H23 lung = system: NCI-H23 lung
SW-620 colon = system: SW-620 colon
T-47D breast = system: T-47D breast
ACHN renal = system: ACHN renal
PC-3 prostate = system: PC-3 prostate

For `O=C(N/N=C/c1ccc(Br)s1)c1[nH]c2ccc(Br)cc2c1-c1ccccc1`, the GI50 (SR leukemia) was 270 nM, the TGI (SR leukemia) was > 50100 nM and the GI50 (U251 CNS) was 989 nM. The TGI (U251 CNS) was > 39900 nM, the GI50 (MDA-MB-231 breast) was 2310 nM and the TGI (MDA-MB-231 breast) was > 100000 nM. The GI50 (OVCAR-3 ovarian) was 638 nM, the TGI (OVCAR-3 ovarian) was 38400 nM and the GI50 (SK-MEL-5 melanoma) was 675 nM. The TGI (SK-MEL-5 melanoma) was 1520 nM, the GI50 (HT29 colon) was 311 nM and the TGI (HT29 colon) was > 35800 nM. The GI50 (786-0 renal) was 1260 nM, the TGI (786-0 renal) was > 100000 nM and the GI50 (UACC-257 melanoma) was 1060 nM. For the same compound, the TGI (UACC-257 melanoma) was > 88300 nM, the GI50 (A498 renal) was 35200 nM and the TGI (A498 renal) was > 84100 nM. The GI50 (MALME-3M melanoma) was 1310 nM, the TGI (MALME-3M melanoma) was > 68100 nM and the GI50 (SNB-75 CNS) was 843 nM. For the same compound, the TGI (SNB-75 CNS) was 7950 nM, the GI50 (LOX IMVI melanoma) was 312 nM and the TGI (LOX IMVI melanoma) was 1350 nM. The GI50 (NCI-H522 lung) was 89.8 nM, the TGI (NCI-H522 lung) was 344 nM and the GI50 (HL-60(TB) leukemia) was < 48.4 nM. It also gave a TGI (HL-60(TB) leukemia) of 387 nM, a GI50 (RXF 393 renal) of 1270 nM and a TGI (RXF 393 renal) of 37300 nM. The GI50 (UACC-62 melanoma) was 1030 nM, the TGI (UACC-62 melanoma) was > 46100 nM and the GI50 (SF-539 CNS) was 292 nM. The TGI (SF-539 CNS) was 1150 nM, the GI50 (SF-268 CNS) was 1610 nM and the TGI (SF-268 CNS) was > 100000 nM. The GI50 (SK-MEL-28 melanoma) was 1720 nM, the TGI (SK-MEL-28 melanoma) was > 88000 nM and the GI50 (RPMI-8226 leukemia) was 377 nM. The TGI (RPMI-8226 leukemia) was > 62500 nM, the GI50 (SK-OV-3 ovarian) was 4070 nM and the TGI (SK-OV-3 ovarian) was > 100000 nM. For the same compound, the GI50 (HOP-62 NSCLC) was 1290 nM, the TGI (HOP-62 NSCLC) was > 66900 nM and the GI50 (TK-10 renal) was 8830 nM. The TGI (TK-10 renal) was > 82800 nM, the GI50 (NCI-H23 lung) was 895 nM and the TGI (NCI-H23 lung) was > 51700 nM. The GI50 (SW-620 colon) was 418 nM, the TGI (SW-620 colon) was > 100000 nM and the GI50 (T-47D breast) was 7050 nM. For the same compound, the TGI (T-47D breast) was > 100000 nM, the GI50 (ACHN renal) was 903 nM and the TGI (ACHN renal) was > 45500 nM. For the same compound, the GI50 (PC-3 prostate) was 386 nM and the TGI (PC-3 prostate) was > 52300 nM.

Source: PubChem BioAssay (NCI)
